US20260166128A1, “HUMAN AMYLIN ANALOG, AND DERIVATIVE THEREOF AND USE THEREOF” (priority 2022, published 2026)
Numbered stars: 1 amine (or outer) side, 2 acyl side, 3 side chain; on linkers, the order of the positions; unused ones are H or OH. Bridge positions count the residues as written; N and C are the ends. Square brackets hold non-standard residues; d marks the D form. Side chains are listed from the residue outwards. Peptide text beside a SMILES is read from it. * marks the point of attachment. C20 diacid = O=C(O)CCCCCCCCCCCCCCCCCCC(=O)*; γGlu = O=C(O)[C@H](CCC(=O)[*:2])N[*:1]; cisHyp = O=C(O)[C@@H]1C[C@H](O)CN1; Hyp = O=C(O)[C@@H]1C[C@@H](O)CN1

The compounds below were run against T1, human amylin receptor (Homo sapiens, UniProt O60896+P30988) (assay: Luciferase assay of amylin derivatives in amylin receptor/CRE-luc CHO cell line). Details: CHO-K1/Ga15/AMY3 CRE-luc cells, 24 hours incubation, F12 medium containing 10% FBS; read-out: EC50.
T1 construct: host or cells: CHO-K1/Ga15/AMY3 cells, further stably transfected with a CRE-luciferase plasmid
T1 sequence (P30988 25-474): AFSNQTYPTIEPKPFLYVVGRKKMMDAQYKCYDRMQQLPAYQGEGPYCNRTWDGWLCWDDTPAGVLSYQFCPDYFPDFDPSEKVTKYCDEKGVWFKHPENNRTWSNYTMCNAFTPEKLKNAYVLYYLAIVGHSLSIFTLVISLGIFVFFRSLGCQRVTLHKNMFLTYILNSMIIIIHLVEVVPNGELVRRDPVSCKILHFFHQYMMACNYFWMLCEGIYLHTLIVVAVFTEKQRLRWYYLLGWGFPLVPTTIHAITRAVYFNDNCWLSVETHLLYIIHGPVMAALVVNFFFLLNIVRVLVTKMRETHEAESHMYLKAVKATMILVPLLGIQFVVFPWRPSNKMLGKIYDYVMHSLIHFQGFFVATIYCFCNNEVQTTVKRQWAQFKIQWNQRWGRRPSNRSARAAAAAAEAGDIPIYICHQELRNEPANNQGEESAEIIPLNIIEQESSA
T1 sequence (O60896 24-148 partner): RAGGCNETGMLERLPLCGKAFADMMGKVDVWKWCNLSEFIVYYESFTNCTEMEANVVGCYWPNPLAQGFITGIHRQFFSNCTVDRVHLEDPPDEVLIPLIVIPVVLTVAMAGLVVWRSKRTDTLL
Assay type: cell-based
Experimental: The experiment was intended to detect the activity or efficacy of the amylin derivatives on a human amylin receptor in vitro by luciferase assay.
50 μL of growth medium (F12 medium containing 10% FBS) was added into each well of a white 96-well plate, and the stably transfected amylin/CRE-lue CHO cells were inoculated into the white 96-well plate at a density of about 20,000 cells/well for activity determination.

Q: Which EC50 does the source give for `CC[C@H](C)[C@H](NC(=O)[C@@H]1CCCN1C(=O)[C@H](CCCCNC(=O)CC[C@H](NC(=O)CCCCCCCCCCCCCCCCCCC(=O)O)C(=O)O)NC(=O)[C@H](CC(C)C)NC(=O)[C@H](CC(N)=O)NC(=O)[C@H](CC(N)=O)NC(=O)[C@H](CO)NC(=O)[C@H](CO)NC(=O)[C@H](Cc1c[nH]cn1)NC(=O)[C@H](CCCNC(=N)N)NC(=O)[C@H](CC(C)C)NC(=O)[C@H](Cc1ccccc1)NC(=O)[C@H](CCC(=O)O)NC(=O)[C@H](C)NC(=O)[C@H](CC(C)C)NC(=O)[C@H](CCCNC(=N)N)NC(=O)[C@H](CCC(N)=O)NC(=O)[C@@H](NC(=O)[C@H](C)NC(=O)[C@@H]1CSSC[C@H](NC(=O)[C@@H](N)CCCNC(=N)N)C(=O)N[C@@H](CC(N)=O)C(=O)N[C@@H]([C@@H](C)O)C(=O)N[C@@H](C)C(=O)N[C@@H]([C@@H](C)O)C(=O)N1)[C@@H](C)O)C(=O)N[C@@H](CC(C)C)C(=O)N1CCC[C@H]1C(=O)N1CCC[C@H]1C(=O)N[C@H](C(=O)N[C@@H](CC(N)=O)C(=O)N[C@H](C(=O)NCC(=O)N[C@@H](CO)C(=O)N[C@@H](CC(N)=O)C(=O)N[C@H](C(=O)N1C[C@@H](O)C[C@H]1C(N)=O)[C@@H](C)O)C(C)C)[C@@H](C)O` [PD055] (H-RCNTATCATQRLAEFLRHSSNNLK([γGlu-C20 diacid])PILPPTNVGSNT[cisHyp]-NH2; disulfide 2-7) here?
A: Its EC50 is 0.909 nM.

Q: With `CC[C@H](C)[C@H](NC(=O)[C@@H]1CCCN1C(=O)[C@H](CCCCNC(=O)CC[C@H](NC(=O)CCCCCCCCCCCCCCCCCCC(=O)O)C(=O)O)NC(=O)[C@H](CC(C)C)NC(=O)[C@H](CC(N)=O)NC(=O)[C@H](CC(N)=O)NC(=O)[C@H](CO)NC(=O)[C@H](CO)NC(=O)[C@H](Cc1c[nH]cn1)NC(=O)[C@H](CCCNC(=N)N)NC(=O)[C@H](CC(C)C)NC(=O)[C@H](Cc1ccccc1)NC(=O)[C@H](CC(=O)O)NC(=O)[C@H](C)NC(=O)[C@H](CC(C)C)NC(=O)[C@H](CCCNC(=N)N)NC(=O)[C@H](CCC(N)=O)NC(=O)[C@@H](NC(=O)[C@H](C)NC(=O)[C@@H]1CSSC[C@H](NC(=O)[C@@H](N)CCCNC(=N)N)C(=O)N[C@@H](CC(N)=O)C(=O)N[C@@H]([C@@H](C)O)C(=O)N[C@@H](C)C(=O)N[C@@H]([C@@H](C)O)C(=O)N1)[C@@H](C)O)C(=O)N[C@@H](CC(C)C)C(=O)N1CCC[C@H]1C(=O)N1CCC[C@H]1C(=O)N[C@H](C(=O)N[C@@H](CC(N)=O)C(=O)N[C@H](C(=O)NCC(=O)N[C@@H](CO)C(=O)N[C@@H](CC(N)=O)C(=O)N[C@H](C(=O)N1C[C@@H](O)C[C@H]1C(N)=O)[C@@H](C)O)C(C)C)[C@@H](C)O` [PD056] (H-RCNTATCATQRLADFLRHSSNNLK([γGlu-C20 diacid])PILPPTNVGSNT[cisHyp]-NH2; disulfide 2-7) as the compound, how does the EC50 read?
A: Its EC50 is 0.586 nM.

Q: `CC[C@H](C)[C@H](NC(=O)[C@@H]1CCCN1C(=O)CNC(=O)[C@H](Cc1ccccc1)NC(=O)[C@H](CC(N)=O)NC(=O)[C@H](CC(N)=O)NC(=O)[C@H](CO)NC(=O)[C@H](CO)NC(=O)[C@H](Cc1c[nH]cn1)NC(=O)[C@H](CCCNC(=N)N)NC(=O)[C@H](CC(C)C)NC(=O)[C@H](Cc1ccccc1)NC(=O)[C@H](CC(=O)O)NC(=O)[C@H](C)NC(=O)[C@H](CC(C)C)NC(=O)[C@H](CCCNC(=N)N)NC(=O)[C@H](CCC(N)=O)NC(=O)[C@@H](NC(=O)[C@H](C)NC(=O)[C@@H]1CSSC[C@H](NC(=O)[C@@H](N)CCCCNC(=O)CC[C@H](NC(=O)CCCCCCCCCCCCCCCCCCC(=O)O)C(=O)O)C(=O)N[C@@H](CC(N)=O)C(=O)N[C@@H]([C@@H](C)O)C(=O)N[C@@H](C)C(=O)N[C@@H]([C@@H](C)O)C(=O)N1)[C@@H](C)O)C(=O)N[C@@H](CC(C)C)C(=O)N1CCC[C@H]1C(=O)N1CCC[C@H]1C(=O)N[C@H](C(=O)N[C@@H](CC(N)=O)C(=O)N[C@H](C(=O)NCC(=O)N[C@@H](CO)C(=O)N[C@@H](CC(N)=O)C(=O)N[C@H](C(=O)N1C[C@H](O)C[C@H]1C(N)=O)[C@@H](C)O)C(C)C)[C@@H](C)O` [PD068] (H-K([γGlu-C20 diacid])CNTATCATQRLADFLRHSSNNFGPILPPTNVGSNT[Hyp]-NH2; disulfide 2-7) was tested. Which EC50 did it give?
A: The EC50 was 0.032 nM.

Q: Which EC50 does the source give for `CC[C@H](C)[C@H](NC(=O)[C@@H]1CCCN1C(=O)CNC(=O)[C@H](CC(C)C)NC(=O)[C@H](CC(N)=O)NC(=O)[C@H](CC(N)=O)NC(=O)[C@H](CO)NC(=O)[C@H](CO)NC(=O)[C@H](Cc1c[nH]cn1)NC(=O)[C@H](CCCNC(=N)N)NC(=O)[C@H](CC(C)C)NC(=O)[C@H](Cc1ccccc1)NC(=O)[C@H](CC(=O)O)NC(=O)[C@H](C)NC(=O)[C@H](CC(C)C)NC(=O)[C@H](CCCNC(=N)N)NC(=O)[C@H](CCC(N)=O)NC(=O)[C@@H](NC(=O)[C@H](C)NC(=O)[C@@H]1CSSC[C@H](NC(=O)[C@H](CCCCN)NC(=O)CC[C@H](NC(=O)CCCCCCCCCCCCCCCCCCC(=O)O)C(=O)O)C(=O)N[C@@H](CC(N)=O)C(=O)N[C@@H]([C@@H](C)O)C(=O)N[C@@H](C)C(=O)N[C@@H]([C@@H](C)O)C(=O)N1)[C@@H](C)O)C(=O)N[C@@H](CC(C)C)C(=O)N1CCC[C@H]1C(=O)N1CCC[C@H]1C(=O)N[C@H](C(=O)N[C@@H](CC(N)=O)C(=O)N[C@H](C(=O)NCC(=O)N[C@@H](CO)C(=O)N[C@@H](CC(N)=O)C(=O)N[C@H](C(=O)N1C[C@H](O)C[C@H]1C(N)=O)[C@@H](C)O)C(C)C)[C@@H](C)O` [PD069] ({C20 diacid-γGlu}-KCNTATCATQRLADFLRHSSNNLGPILPPTNVGSNT[Hyp]-NH2; disulfide 2-7) here?
A: Its EC50 is 0.039 nM.

Q: `CC[C@H](C)[C@H](NC(=O)[C@@H]1CCCN1C(=O)[C@H](CCCCN)NC(=O)[C@H](CC(C)C)NC(=O)[C@H](CC(N)=O)NC(=O)[C@H](CC(N)=O)NC(=O)[C@H](CO)NC(=O)[C@H](CO)NC(=O)[C@H](Cc1c[nH]cn1)NC(=O)[C@H](CCCNC(=N)N)NC(=O)[C@H](CC(C)C)NC(=O)[C@H](Cc1ccccc1)NC(=O)[C@H](CC(=O)O)NC(=O)[C@H](C)NC(=O)[C@H](CC(C)C)NC(=O)[C@H](CCCNC(=N)N)NC(=O)[C@H](CCC(N)=O)NC(=O)[C@@H](NC(=O)[C@H](C)NC(=O)[C@@H]1CSSC[C@H](NC(=O)[C@H](CCCCN)NC(=O)CC[C@H](NC(=O)CCCCCCCCCCCCCCCCCCC(=O)O)C(=O)O)C(=O)N[C@@H](CC(N)=O)C(=O)N[C@@H]([C@@H](C)O)C(=O)N[C@@H](C)C(=O)N[C@@H]([C@@H](C)O)C(=O)N1)[C@@H](C)O)C(=O)N[C@@H](CC(C)C)C(=O)N1CCC[C@H]1C(=O)N1CCC[C@H]1C(=O)N[C@H](C(=O)N[C@@H](CC(N)=O)C(=O)N[C@H](C(=O)NCC(=O)N[C@@H](CO)C(=O)N[C@@H](CC(N)=O)C(=O)N[C@H](C(=O)N1C[C@H](O)C[C@H]1C(N)=O)[C@@H](C)O)C(C)C)[C@@H](C)O` [PD071] ({C20 diacid-γGlu}-KCNTATCATQRLADFLRHSSNNLKPILPPTNVGSNT[Hyp]-NH2; disulfide 2-7 (inferred)) was tested. Which EC50 did it give?
A: Its EC50 is 0.028 nM.
